How the values were obtained:
[1] = test system: TNF and IL1B mRNA expression; test: TNF and IL1B mRNA expression (qRT-PCR) in TL8-506-stimulated THP-1 macrophages; format: cell-based, human; details: 10 μM, TL8-506 (6 μM) 1 h
p-NF-κB p65, IκBα = test: Western blot of NF-κB pathway proteins in TL8-506-stimulated THP-1 macrophages; format: cell-based, human; details: 10 μM, TL8-506 (0.6 μM) 15 min
From the text: (§1) Mean + SEM (n = 3). […] Bar graphs show mean + SEM (n = 3). […] Mean + SEM (n = 4). […] Whole-cell lysates were used for WB. […] Mean + SEM (n = 4). […] Mean + SEM (n = 4). […] Mean ± SEM (n = 3).
Twenty-five μg protein per lane was separated on a 10% TGX Stain-Free FastCast acrylamide gel (1610183, Bio-Rad, Feldkirchen, Germany) containing TEMED (2367, Carl Roth, Karlsruhe, Germany) and ammonium persulfate (A3678, Sigma-Aldrich, Taufkirchen, Germany) using MiniPROTEAN electrophoresis system (Bio-Rad). Gels were blotted on low fluorescence polyvinylidene difluoride membranes (Immobilon-FL PVDF low fluorescence; 05317, Merck, Darmstadt, Germany) using the Trans-Blot Turbo System (Bio-Rad, Feldkirchen, Germany). Membranes were blocked using 5% milk (T145.2, Carl Roth, Karlsruhe, Germany) in TBS-T buffer consisting of TRIS HCl (T3253, Sigma-Aldrich, Taufkirchen, Germany), NaCl (27810.295, VWR, Darmstadt, Germany), and Tween 20 (9127.1, Carl Roth, Karlsruhe, Germany). […] Afterward, they were washed three times with TBS-T and incubated with either rabbit anti-IgG HRP conjugated antibody (no. 7074) or mouse anti-IgG HRP conjugated antibody (no. 7076), all from Cell Signaling Technology (CST, Leiden, The Netherlands), for one h at RT. […] Values of protein expression were analyzed by densitometry and normalized to total protein levels using Image lab 6.1 Bio-Rad, Feldkirchen, Germany.

IL-1β release = IL-1β release after TLR8 priming and NLRP3 activation in THP-1 macrophages; format: cell-based, human; details: 10 μM, TL8-506 priming, nigericin or ATP
From the text: as §1

[2] = test system: TLR2/1, TLR2/6, TLR3, TLR4, TLR5, TLR7, TLR9; test: TLR specificity in hTLR-HEK293 reporter cells (NF-κB SEAP); format: cell-based, human; details: 10 μM compound
Protocol: as §1
(§2) HEK-Blue cells (4 × 10^4 cells/well) and THP-1 macrophages (4 × 10^4 cells/well, 4 × 10^5 cells/well and 8 × 10^5 cells/well) were seeded in 96-well plates, 24-well plates, or 6-well plates (PS, Sarsted, Germany), respectively. For stimulation experiments, cells were washed with phosphate-buffered saline (PBS, Sigma-Aldrich) and media was replaced with OptiMEM (Thermo Fisher Scientific, Darmstadt, Germany). […] The following TLR ligands were used: Pam2CSK4, Pam3CSK4, poly(I:C) (HMW), LPS from Escherichia coli O111:B4 (LPS-EB Ultrapure), flagellin from Bacillus subtilis (flagellin-BS Ultrapure), CL307, CL075, R848, TL8-506, ODN2006 (all from InvivoGen, Toulouse, France), and Enpatoran (BIOZOL Diagnostika, Germany).

PBMCs = test: Cell viability (LDH release) in PBMCs; format: cell-based, human; details: 24 h, up to 100 μM
Protocol: In selected experiments, LDH assay was performed according to the manufacturer’s instructions (Thermo fisher Scientific, Darmstadt, Germany). The percentage of LDH release was calculated compared to the 100% cell lysis control.
(A) THP-1 Macrophages were incubated with increasing concentrations of 10 and 12 for 24 h. Cell viability was analyzed using the MTT assay, and normalized to non-stimulated cells (vehicle control). DMSO (10%, v/v) was used as the cytotoxic control. Mean + SEM (n=3). (B) PBMCs were incubated with 0.6 µM TL8-506 or increasing concentrations of 10 and 12 for 24 h. LDH […]
maximum LDH release. Mean + SEM (n=3-4).

THP-1 macrophages = test: Cell viability (MTT) in THP-1 macrophages; format: cell-based, human; details: 24 h, up to 100 μM
Protocol: Effects on cell viability were assessed by the MTT assay. […] Subsequently, 25 μL of MTT (3-(4,5-dimethylthiazol-2-yl)-2,5-diphenyltetrazolium bromide, 5 mg/mL) was added and incubated for 4 h at 37 °C. After the supernatants were removed, DMSO (4720.1, Carl Roth, Karlsruhe, Germany) was added and absorption at 540 nm was measured. Viability of the untreated cells was defined as 100%. DMSO (10% (v/v); A994.1, Carl Roth, Karlsruhe, Germany) served as a positive control. page 9: Figure S8. […] (A) THP-1 Macrophages were incubated with increasing concentrations of 10 and 12 for 24 h. Cell viability was analyzed using the MTT assay, and normalized to non-stimulated cells (vehicle control). DMSO (10%, v/v) was used as the cytotoxic control. Mean + SEM (n=3). (B) PBMCs

TLR2 or TLR4 = test: TNF release in THP-1 macrophages stimulated with TLR2 or TLR4 agonists (Pam3CSK4, Pam2CSK4, LPS); format: cell-based, human; details: 10 μM compound, 24 h
From the text: Mean ± SEM (n = 3). […] Mean + SEM (n = 4).

TLR8 [3] = molecular target: T1, TLR8 (Homo sapiens, UniProt Q9NR97); test: Inhibition of TL8-506-stimulated TNF release (ELISA) in PBMCs; details: read-out: IC50 [μM] (95% CI) TNF release PBMCs, 1 h preincubation, TL8-506 (0.6 μM) 4 h
T1 sequence (Q9NR97 27-1041): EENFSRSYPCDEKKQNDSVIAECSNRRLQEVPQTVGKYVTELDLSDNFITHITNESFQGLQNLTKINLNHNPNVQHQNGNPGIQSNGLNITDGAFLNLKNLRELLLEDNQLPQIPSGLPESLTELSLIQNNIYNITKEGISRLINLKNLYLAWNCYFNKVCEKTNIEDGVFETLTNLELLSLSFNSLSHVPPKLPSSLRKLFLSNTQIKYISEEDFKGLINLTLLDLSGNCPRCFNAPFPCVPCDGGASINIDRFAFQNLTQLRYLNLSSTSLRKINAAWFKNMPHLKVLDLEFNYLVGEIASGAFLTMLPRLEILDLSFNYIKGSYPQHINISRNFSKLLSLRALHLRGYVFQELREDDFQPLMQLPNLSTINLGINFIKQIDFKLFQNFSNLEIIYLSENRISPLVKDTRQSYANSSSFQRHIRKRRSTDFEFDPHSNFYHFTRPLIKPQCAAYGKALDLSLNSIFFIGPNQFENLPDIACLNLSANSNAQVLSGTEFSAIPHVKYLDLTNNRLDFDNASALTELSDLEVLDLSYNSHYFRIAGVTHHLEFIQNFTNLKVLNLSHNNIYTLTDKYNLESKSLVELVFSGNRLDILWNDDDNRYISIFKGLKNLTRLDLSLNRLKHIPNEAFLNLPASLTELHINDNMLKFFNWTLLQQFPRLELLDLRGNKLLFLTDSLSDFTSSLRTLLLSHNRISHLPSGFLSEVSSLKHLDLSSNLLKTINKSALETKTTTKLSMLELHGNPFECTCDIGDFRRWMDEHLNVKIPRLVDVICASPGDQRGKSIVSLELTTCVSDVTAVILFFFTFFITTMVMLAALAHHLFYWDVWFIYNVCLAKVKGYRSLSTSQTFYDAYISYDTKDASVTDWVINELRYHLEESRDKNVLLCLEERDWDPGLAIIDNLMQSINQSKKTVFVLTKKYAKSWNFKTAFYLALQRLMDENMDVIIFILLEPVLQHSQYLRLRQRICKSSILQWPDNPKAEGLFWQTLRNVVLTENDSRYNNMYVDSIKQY

TLR8 [4] = molecular target: T1, TLR8; test: Inhibition of TLR8 agonist-stimulated TNF release (ELISA) in THP-1 macrophages
TLR8 [5] = molecular target: T1, TLR8; test: Inhibition of TL8-506-stimulated NF-κB activity (SEAP reporter, QuantiBlue) in hTLR8-HEK293 reporter cells; format: cell-based; parameters: host or cells: HEK293 (HEK-Blue hTLR8)
hTLR7 = molecular target: T2, hTLR7 (Homo sapiens, UniProt Q9NYK1); test: Inhibition of CL307-stimulated NF-κB activity (SEAP reporter) in hTLR7-HEK293 reporter cells; format: cell-based
T2 construct: host or cells: HEK293 (HEK-Blue hTLR7)
T2 sequence (Q9NYK1 27-1049): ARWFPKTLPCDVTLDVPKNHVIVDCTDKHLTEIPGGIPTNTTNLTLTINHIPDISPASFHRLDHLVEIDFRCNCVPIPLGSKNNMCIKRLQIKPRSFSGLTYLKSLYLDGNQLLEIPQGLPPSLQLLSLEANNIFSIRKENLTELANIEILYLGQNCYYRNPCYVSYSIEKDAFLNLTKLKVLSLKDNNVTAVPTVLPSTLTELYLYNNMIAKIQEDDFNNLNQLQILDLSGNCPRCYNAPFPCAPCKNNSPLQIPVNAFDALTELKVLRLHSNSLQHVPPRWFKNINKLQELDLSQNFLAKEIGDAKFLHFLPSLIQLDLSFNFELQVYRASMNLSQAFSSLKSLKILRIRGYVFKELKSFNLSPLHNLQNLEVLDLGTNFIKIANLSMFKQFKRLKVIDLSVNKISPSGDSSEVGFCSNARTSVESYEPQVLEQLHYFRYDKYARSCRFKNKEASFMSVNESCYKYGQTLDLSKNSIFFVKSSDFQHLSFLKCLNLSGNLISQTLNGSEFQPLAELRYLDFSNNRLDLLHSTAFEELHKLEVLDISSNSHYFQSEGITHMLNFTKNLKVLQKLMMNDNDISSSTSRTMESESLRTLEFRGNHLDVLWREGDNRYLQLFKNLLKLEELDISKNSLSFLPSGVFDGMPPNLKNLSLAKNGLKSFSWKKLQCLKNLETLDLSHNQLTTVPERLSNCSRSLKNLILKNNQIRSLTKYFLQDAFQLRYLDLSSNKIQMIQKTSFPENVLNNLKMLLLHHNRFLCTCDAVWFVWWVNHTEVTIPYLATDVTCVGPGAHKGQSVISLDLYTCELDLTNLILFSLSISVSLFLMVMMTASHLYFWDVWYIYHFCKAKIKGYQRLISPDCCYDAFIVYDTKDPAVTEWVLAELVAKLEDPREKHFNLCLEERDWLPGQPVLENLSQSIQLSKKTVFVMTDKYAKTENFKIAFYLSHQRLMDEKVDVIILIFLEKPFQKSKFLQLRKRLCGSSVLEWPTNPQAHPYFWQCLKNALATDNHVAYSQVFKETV
From the text: as §2, with “For” for “HEK-Blue cells (4 × 10^4 cells/well) and THP-1 macrophages (4 × 10^4 cells/well, 4 × 10^5 cells/well and 8 × 10^5 cells/well) were seeded in 96-well plates, 24-well plates, or 6-well plates (PS, Sarsted, Germany), respectively. For”

Structure (SMILES) | mRNA expression levels of TNF and IL1B [1] | IκBα level (p-NF-κB p65, IκBα) | p-NF-κB p65 level (p-NF-κB p65, IκBα) | IL-1β release (IL-1β release) | Activity against other TLRs (NF-κB activation) [2] | Cell viability PBMCs (PBMCs) | Cell viability THP-1 macrophages (THP-1 macrophages) | TNF responses to TLR2 or TLR4 agonists (TLR2 or TLR4) | IC50 (TLR8 [3]) [µM] | TNF production in response to TLR8 agonists TL8-506 or CL075 (TLR8 [4]; 10 μM compound, THP-1 macrophages, 24 h) | IC50 (TLR8 [4]; read-out: IC50 [μM] (95% CI) TNF release THP-1 macrophages, 1 h preincubation, TL8-506 (0.6 μM) 4 h, ELISA) [µM] | IC50 (TLR8 [5]) [µM] | inhibition at 10 µM (TLR8 [5]; read-out: % inhibition at 10 µM ± SEM (NF-κB activity), 10 µM compound, TL8-506 (0.6 μM) 24 h, hTLR8-HEK293) [%] | IC50 (TLR8 [5]; read-out: IC50 [μM] (95% CI) hTLR8-HEK293, inhibition of NF-κB activity, 1 h preincubation, TL8-506 (0.6 μM) 24 h) [µM] | Selectivity factor IC50 (TLR7)/ IC50 (TLR8) (hTLR7; hTLR7-HEK293 vs hTLR8-HEK293) | IC50 (hTLR7; read-out: IC50 [μM] (95% CI) hTLR7-HEK293, inhibition of NF-κB activity, 1 h preincubation, CL307 (1.7 µM) 24 h) [µM]
CCN1CCC(NC(=O)c2ccc(OCc3c(C)noc3C)c(OC)c2)CC1 [Compound 10] | significantly inhibited | increased | reduced | blocked | no significant activity against other TLRs | without affecting cell viability up to 100 μM | unaffected up to 100 μM | without influencing responses | – | – | – | – | – | – | – | –
COc1cc(C(=O)NCC(c2ccc(C)cc2)N(C)C)ccc1OCc1c(C)noc1C (stereo not shown) [Compound 12] | – | – | – | – | – | without affecting cell viability up to 100 μM | unaffected up to 100 μM | without influencing responses | 1.15 | selectively inhibited | 0.12 | < 0.5 | 83 ± 15 | 0.5 | >102 | > 50

— article PMC12613816, “Discovery of Novel Isoxazole-Based Small-Molecule Toll-Like Receptor 8 Antagonists” (Journal of Medicinal Chemistry, 2025)
